The series in a line: in vitro. Particulars: human, hela cells, % viability.

In article PMC12040169 (PLOS Biology, 2025) one finds viability data, which are given here for 75 compounds.

With `Cn1cccc1C(=O)Nc1cc2ccccc2c(N2CCNCC2)n1` [CBK036347T], the viability at 28.5 h, 10 µM came to 95.5%. `O=C(NCc1ccc(OC2CCNCC2)cc1)c1cccs1` [CBK036353T]: the viability at 28.5 h, 10 µM was 89.8%.

Take `N#Cc1ccc(C(=O)NCc2ccc(OC3CCNCC3)cc2)cc1` [CBK036358T]: the viability at 28.5 h, 10 µM is 89.5%. With `O=C(NCc1ccc(OC2CCNCC2)cc1)c1ccccn1` [CBK036361T], the viability at 28.5 h, 10 µM was determined as 93.1%. To `O=C(Nc1cncc(OC2CCNCC2)n1)c1ccoc1` [CBK036366T] belongs 92%; to `O=C(Nc1cncc(OC2CCNCC2)n1)c1cnccn1` [CBK036372T], 93%. To `O=C(Nc1cncc(OC2CCNCC2)n1)c1cccnc1` [CBK036375T] belongs 92.1%. To `O=C(Nc1cncc(OC2CCNCC2)n1)c1cnc2ccccc2c1` [CBK036377T] belongs 92.8%; to `CN1CCCN(c2cc(C(F)(F)F)c3scc(C(=O)NCc4cccc(F)c4F)c3n2)CC1` [CBK036386T], 87.9%. `NCC1CCN(c2cc(C(F)(F)F)c3scc(C(=O)NCc4cccc(F)c4F)c3n2)CC1` [CBK036391T]: the viability at 28.5 h, 10 µM worked out at 71.6%.

With `Cc1cccc(Cl)c1S(=O)(=O)c1ccc2ccnc(N3CCNCC3)c2c1` [CBK036394C], the viability at 28.5 h, 10 µM amounted to 78.9%. To `COc1ccc([C@@]23CC[C@H](NC(=O)CSc4nccn4C)C[C@@H]2N(C)CC3)cc1OC` [CBK036444] belongs 84.7%; to `COc1ccc([C@@]23CC[C@H](NC(=O)CS(=O)(=O)c4ccccc4)C[C@@H]2N(C)CC3)cc1OC` [CBK036445], 105%; to `COc1ccc([N+](=O)[O-])cc1NC(=O)N[C@@H]1CC[C@@]2(c3ccc(OC)c(OC)c3)CCN(C)[C@H]2C1` [CBK036449T], 111%.

For `COc1ccc([C@@]23CC[C@@H](NC(=O)Nc4ccccc4C(F)(F)F)C[C@@H]2N(C)CC3)cc1OC` [CBK036466T], the viability at 28.5 h, 10 µM is 106%. For the compound `COc1ccc([C@@]23CC[C@@H](NC(=O)Nc4ccc(Cl)cc4[N+](=O)[O-])C[C@@H]2N(C)CC3)cc1OC` [CBK036474T], the viability at 28.5 h, 10 µM came out at 84.1%. `COc1ccc(CNC(=O)c2cnc(-c3ccc(F)cc3)c(-c3ccc(C(C)=O)s3)c2)cc1` [CBK036577]: the viability at 28.5 h, 10 µM is 90.7%.

Regarding `Fc1ccccc1-c1cn2ccnc2c(N2CCOCC2)n1` [CBK036584], the viability at 28.5 h, 10 µM came out at 105%. To `COc1cccc(OC)c1-c1cn2ccnc2c(N[C@H](CO)C(C)C)n1` [CBK036586] belongs 99.5%. To `COc1ncc(-c2nccnc2N[C@H](C)c2ccccc2)c(OC)n1` [CBK036588] belongs 83.7%; to `COc1ncc(-c2nccnc2N2CCN(C)CC2)c(OC)n1` [CBK036595], 98.7%; to `Cc1cc(-c2nccnc2NCCCN2CCOCC2)cc(C)c1O` [CBK036598], 92%.

For the compound `c1cncc(-c2cn3ccnc3c(NCC3CC3)n2)c1` [CBK036609], the viability at 28.5 h, 10 µM came out at 84%. To `CC(=O)Nc1cccc(-c2nccnc2N[C@H](CO)C(C)C)c1` [CBK036611] belongs 97%. `COc1ccc(-c2cc(C(=O)Nc3nc4ccccc4[nH]3)cnc2-c2ccc(F)cc2)cn1` [CBK036617]: the viability at 28.5 h, 10 µM stood at 98.6%. To `COc1ccc(-c2cc(C(=O)Nc3ccc4ncccc4c3)cnc2-c2ccccc2)cc1` [CBK036623] belongs 106%; to `O=C(NC1CCc2ccccc21)c1cnc(-c2ccc(Cl)cc2)c(-c2ccc(O)cc2)c1` (stereo not drawn) [CBK036629], 91%; to `c1csc(-c2nccnc2NCCCN2CCOCC2)c1` [CBK036632], 84.6%.

Regarding `O=C(N[C@H]1CCN(Cc2ccccc2)C1)c1cnc(-c2ccccc2)c(-c2ccncc2)c1` [CBK036639], the viability at 28.5 h, 10 µM worked out at 84.7%. As for `CC(=O)c1ccc(-c2cc(C(=O)NCc3cccc(C(F)(F)F)c3)cnc2-c2ccccc2)s1` [CBK036641], the viability at 28.5 h, 10 µM turned out to be 90.1%. To `COc1ccccc1-c1nccnc1NCc1cc(OC)c(OC)c(OC)c1` [CBK036642] belongs 90.6%; to `COc1ccc(NC(=O)c2cnc(-c3ccc(Cl)cc3)c(-c3ccc(C(C)=O)s3)c2)cn1` [CBK036643], 92.2%.

Regarding `COc1ccc(-c2cc(C(=O)NCC(O)CO)cnc2-c2ccc(Cl)cc2)cn1` (stereo not drawn) [CBK036645], the viability at 28.5 h, 10 µM came out at 94%. To `Cc1cc(-c2nccnc2NCc2cccc(Cl)c2)cc(C)c1O` [CBK036646] belongs 87.4%; to `CC(C)[C@@H](CO)Nc1nccnc1-c1ccoc1` [CBK036648], 86.6%. Regarding `COc1ccc(C(C)C)cc1-c1nccnc1NCCc1c[nH]c2ccccc12` [CBK036650], the viability at 28.5 h, 10 µM is 109%. To `Cc1cccc(-c2ncc(NC(=O)CCOc3ccccc3)nc2-c2ccc(N)cc2)c1` [CBK036655] belongs 113%. On to `O=C(NCC(O)c1ccc(O)cc1)c1cnc(-c2ccc(Cl)cc2)c(-c2cccnc2)c1` (stereo not drawn) [CBK036656], for which the viability at 28.5 h, 10 µM is 92.5%. As to `COC(=O)c1cscc1NC(=O)c1cnc(-c2ccc(Cl)cc2)c(-c2ccco2)c1` [CBK036657], the viability at 28.5 h, 10 µM is 104%.

Regarding `COc1ccc(-c2nc(NC(=O)c3ccncc3)cnc2-c2ccc(F)c(Cl)c2)cc1` [CBK036663], the viability at 28.5 h, 10 µM is 88.6%.

As for `O=C(NCCCN1CCOCC1)c1cnc(-c2ccccc2)c(-c2ccncc2)c1` [CBK036664], the viability at 28.5 h, 10 µM is 106%. As to `O=C(NCc1cccc(C(F)(F)F)c1)c1cnc(-c2ccccc2)c(-c2ccco2)c1` [CBK036667], the viability at 28.5 h, 10 µM came to 103%.

On to `CCc1cccc(NC(=O)c2cnc(-c3ccc(Cl)cc3)c(-c3ccc(OC)nc3)c2)n1` [CBK036671], for which the viability at 28.5 h, 10 µM is 93.7%. To `COc1ccc(C(C)C)cc1-c1nccnc1NCc1ccco1` [CBK036672] belongs 98%. To `COc1ccc(C(C)C)cc1-c1nccnc1N1CCCN(C)CC1` [CBK036677] belongs 110%; to `Cc1cccc(-c2ncc(C(=O)NCCc3c[nH]cn3)cc2-c2ccncc2)c1` [CBK036678], 86.9%; to `COc1ncc(-c2nccnc2NCc2cccc([N+](=O)[O-])c2)c(OC)n1` [CBK036680], 97.7%. Consider `COc1ccc(-c2cc(C(=O)Nc3nc4c(OC)cccc4s3)cnc2-c2ccccc2)cn1` [CBK036681], for which the viability at 28.5 h, 10 µM was determined as 105%. To `COc1ccc(C(C)C)cc1-c1nccnc1NCc1ccc2c(c1)OCO2` [CBK036683] belongs 81%; to `Cc1cccc(-c2ncc(NC(=O)CCc3cccnc3)nc2-c2ccc(N)cc2)c1` [CBK036684], 86.9%; to `Nc1ccc(CCNC(=O)c2cnc(-c3ccc(Cl)cc3)c(-c3ccco3)c2)cc1` [CBK036686], 99.7%.

Consider `COc1ccc(-c2nc(NC(=O)C3CC(=O)N(C)C3c3cccnc3)cnc2-c2cccc(C)c2)cc1` (stereo not drawn) [CBK036692], for which the viability at 28.5 h, 10 µM is 101%. To `Cc1cccc(-c2ncc(NC(=O)c3ccccn3)nc2-c2ccc(N)cc2)c1` [CBK036694] belongs 93.3%.

For `NC(=O)c1ccc(-c2nccnc2NCc2ccc3c(c2)OCO3)cc1` [CBK036696], the viability at 28.5 h, 10 µM was found to be 91.3%.

For `COc1ccc(-c2cc(C(=O)NCC3CCNCC3)cnc2-c2ccc(Cl)cc2)cn1` [CBK036700], the viability at 28.5 h, 10 µM was determined as 105%.

On to `COc1ncc(-c2nc(NC(=O)Cc3cc(F)c(F)c(F)c3)cnc2-c2cccc(C)c2)c(OC)n1` [CBK036717], for which the viability at 28.5 h, 10 µM was 96.4%. To `COC1CCC(C(=O)Nc2cnc(-c3ccc(F)c(Cl)c3)c(-c3ccc(C(C)=O)s3)n2)CC1` (stereo not drawn) [CBK036718] belongs 99.3%; to `COC(=O)C(NC(=O)c1cnc(-c2ccc(Cl)cc2)c(-c2ccc(O)cc2)c1)c1ccccc1` (stereo not drawn) [CBK036723], 90.6%; to `NC(=O)c1cccc(-c2nccnc2N2CCN(CCO)CC2)c1` [CBK036726], 96.9%. To `COc1ccccc1-c1nccnc1N1CCCC1CO` (stereo not drawn) [CBK036735] belongs 102%; to `C=CCNC(=O)c1cnc(-c2ccc(Cl)cc2)c(-c2ccco2)c1` [CBK036738], 90.6%. To `COCCNc1nccnc1-c1cccs1` [CBK036739] belongs 100%; to `CN(C)c1cccc(C(=O)Nc2cnc(-c3cccc(C(F)(F)F)c3)c(-c3cccnc3)n2)c1` [CBK036752], 90.4%.

Turning to `C[C@@H](Nc1nccnc1-c1cccnc1)c1ccccc1` [CBK036759], the viability at 28.5 h, 10 µM was determined as 109%. To `COC(=O)c1cscc1NC(=O)c1cnc(-c2cccc(C)c2)c(-c2ccc(C(C)=O)s2)c1` [CBK036760] belongs 85.4%.

As to `CC(=O)c1ccc(-c2cc(C(=O)NC3CCc4ccccc43)cnc2-c2ccc(Cl)cc2)s1` (stereo not drawn) [CBK036762], the viability at 28.5 h, 10 µM amounted to 96.9%.

`c1csc(-c2nccnc2NCCc2ccncc2)c1` [CBK036764]: the viability at 28.5 h, 10 µM is 108%. To `O=C(NCCn1cc[nH]c1=O)c1cnc(-c2ccc(Cl)cc2)c(-c2ccc(O)cc2)c1` [CBK036766] belongs 92%; to `Fc1cccc(-c2nccnc2NCC2CC2)c1` [CBK036767], 94.4%; to `Cc1cccc(-c2ncc(C(=O)NCc3csc4ccc(Cl)cc34)cc2-c2ccncc2)c1` [CBK036770], 89.6%.

Take `COc1ccccc1-c1nccnc1N(C)Cc1ccccc1` [CBK036774]: the viability at 28.5 h, 10 µM stood at 102%.

For `c1ccc(CCNc2nccnc2-c2cccs2)nc1` [CBK036776], the viability at 28.5 h, 10 µM turned out to be 97.7%. To `CS(=O)(=O)c1cccc(C(=O)Nc2cnc(-c3ccc(F)c(Cl)c3)c(-c3cccnc3)n2)c1` [CBK036779] belongs 101%; to `Cc1noc(C)c1C(=O)Nc1cnc(-c2ccc(F)cc2)c(-c2ccsc2)n1` [CBK036781], 97.6%; to `CCOc1ccccc1C(=O)Nc1cnc(-c2cccc(C)c2)c(-c2ccc(N)cc2)n1` [CBK036783], 107%.

Broadly, the viability is a read-out of living cells in per cent, often relative to untreated cells.
